Assay results as given in ChEMBL document CHEMBL5046315, “CRCM5484: A BET-BDII Selective Compound with Differential Anti-leukemic Drug Modulation” (J Med Chem, 2022).
pEC50: −log10 of the molar value. The source made the active and inactive calls.

Columns and labels:
CCRF-CEM [1] = test: Potentiation of cyclopamine-induced antileukemic activity against human CCRF-CEM cells at 4.3 uM in presence of bone-marrow derived stromal cell-conditioned medium; format: functional, cell-based
MOLM-14 [2] = test: Potentiation of AT9283-induced antileukemic activity against human MOLM-14 cells at 4.3 uM in presence of bone-marrow derived stromal cell-conditioned medium; format: functional, cell-based
CCRF-CEM [3] = test: Potentiation of temsirolimus-induced antileukemic activity against human CCRF-CEM cells at 4.3 uM in presence of bone-marrow derived stromal cell-conditioned medium; format: functional, cell-based
MOLM-14 [4] = test: Potentiation of asparaginase-induced antileukemic activity against human MOLM-14 cells at 4.3 uM in presence of bone-marrow derived stromal cell-conditioned medium; format: functional, cell-based
CCRF-CEM [5] = test: Potentiation of bleomycine-induced antileukemic activity against human CCRF-CEM cells at 4.3 uM in presence of bone-marrow derived stromal cell-conditioned medium; format: functional, cell-based
MOLM-14 [6] = test: Potentiation of sunitinib-induced antileukemic activity against human MOLM-14 cells at 4.3 uM in presence of bone-marrow derived stromal cell-conditioned medium; format: functional, cell-based
MOLM-14 [7] = test: Potentiation of birinapant-induced antileukemic activity against human MOLM-14 cells at 4.3 uM in presence of bone-marrow derived stromal cell-conditioned medium; format: functional, cell-based
U-937 [8] = test: Potentiation of MK2206-induced antileukemic activity against human U-937 cells at 4.3 uM in presence of bone-marrow derived stromal cell-conditioned medium; format: functional, cell-based
MOLM-14 [9] = test: Potentiation of AGI-5198-induced antileukemic activity against human MOLM-14 cells at 4.3 uM in presence of bone-marrow derived stromal cell-conditioned medium; format: functional, cell-based
MOLM-14 [10] = test: Potentiation of volasertib-induced antileukemic activity against human MOLM-14 cells at 4.3 uM in presence of bone-marrow derived stromal cell-conditioned medium; format: functional, cell-based
U-937 [11] = test: Potentiation of arsenic-induced antileukemic activity against human U-937 cells at 4.3 uM in presence of bone-marrow derived stromal cell-conditioned medium; format: functional, cell-based
U-937 [12] = test: Potentiation of gefitinib-induced antileukemic activity against human U-937 cells at 4.3 uM in presence of bone-marrow derived stromal cell-conditioned medium; format: functional, cell-based
U-937 [13] = test: Potentiation of SGI-1776-induced antileukemic activity against human U-937 cells at 4.3 uM in presence of bone-marrow derived stromal cell-conditioned medium; format: functional, cell-based
MOLM-14 [14] = test: Potentiation of trametinib-induced antileukemic activity against human MOLM-14 cells at 4.3 uM in presence of bone-marrow derived stromal cell-conditioned medium; format: functional, cell-based
CCRF-CEM [15] = test: Potentiation of bosutinib-induced antileukemic activity against human CCRF-CEM cells at 4.3 uM in presence of bone-marrow derived stromal cell-conditioned medium; format: functional, cell-based
MOLM-14 [16] = test: Potentiation of imatinib-induced antileukemic activity against human MOLM-14 cells at 4.3 uM in presence of bone-marrow derived stromal cell-conditioned medium; format: functional, cell-based
[17] = test system: Acute myeloid leukemic cell; test: Potentiation of birinapant-induced antileukemic activity against patient derived mouse xenografted acute myeloid leukemic cells assessed as cell viability at 2 uM measured after 72 to 144 hrs by Cell-titre glo luminescent assay; format: functional, cell-based; conditions: Homo sapiens, time lower […], time upper 144.0 hrs
U-937 [18] = test: Potentiation of seliciclib-induced antileukemic activity against human U-937 cells at 4.3 uM in presence of bone-marrow derived stromal cell-conditioned medium; format: functional, cell-based
CCRF-CEM [19] = test: Potentiation of navitoclax-induced antileukemic activity against human CCRF-CEM cells at 4.3 uM in presence of bone-marrow derived stromal cell-conditioned medium; format: functional, cell-based
CCRF-CEM [20] = test: Potentiation of carfilzomib-induced antileukemic activity against human CCRF-CEM cells at 4.3 uM in presence of bone-marrow derived stromal cell-conditioned medium; format: functional, cell-based
MOLM-14 [21] = test: Potentiation of seliciclib-induced antileukemic activity against human MOLM-14 cells at 4.3 uM in presence of bone-marrow derived stromal cell-conditioned medium; format: functional, cell-based
CCRF-CEM [22] = test: Potentiation of 17AAG-induced antileukemic activity against human CCRF-CEM cells at 4.3 uM in presence of bone-marrow derived stromal cell-conditioned medium; format: functional, cell-based
MOLM-14 [23] = test: Potentiation of dasatinib-induced antileukemic activity against human MOLM-14 cells at 4.3 uM in presence of bone-marrow derived stromal cell-conditioned medium; format: functional, cell-based
MOLM-14 [24] = test: cells; conditions: Homo sapiens, MOLM-14, 72 h
Description: Cytotoxicity against human MOLM-14 cells assessed as reduction in cell viability incubated for 72 hrs

CCRF-CEM [25] = test: Potentiation of volasertib-induced antileukemic activity against human CCRF-CEM cells at 4.3 uM in presence of bone-marrow derived stromal cell-conditioned medium; format: functional, cell-based
CCRF-CEM [26] = test: Potentiation of rigosertib-induced antileukemic activity against human CCRF-CEM cells at 4.3 uM in presence of bone-marrow derived stromal cell-conditioned medium; format: functional, cell-based
CCRF-CEM [27] = test: Potentiation of gileritinib-induced antileukemic activity against human CCRF-CEM cells at 4.3 uM in presence of bone-marrow derived stromal cell-conditioned medium; format: functional, cell-based
CCRF-CEM [28] = test: Potentiation of vermurafenib-induced antileukemic activity against human CCRF-CEM cells at 4.3 uM in presence of bone-marrow derived stromal cell-conditioned medium; format: functional, cell-based
MOLM-14 [29] = test: Potentiation of -nutlin 3-induced antileukemic activity against human MOLM-14 cells at 4.3 uM in presence of bone-marrow derived stromal cell-conditioned medium; format: functional, cell-based
U-937 [30] = test: Potentiation of SGI-110-induced antileukemic activity against human U-937 cells at 4.3 uM in presence of bone-marrow derived stromal cell-conditioned medium; format: functional, cell-based
CCRF-CEM [31] = test: Potentiation of vorinostat-induced antileukemic activity against human CCRF-CEM cells at 4.3 uM in presence of bone-marrow derived stromal cell-conditioned medium; format: functional, cell-based
CCRF-CEM [32] = test: Potentiation of nelarabine-induced antileukemic activity against human CCRF-CEM cells at 4.3 uM in presence of bone-marrow derived stromal cell-conditioned medium; format: functional, cell-based
CCRF-CEM [33] = test: Potentiation of docetaxel-induced antileukemic activity against human CCRF-CEM cells at 4.3 uM in presence of bone-marrow derived stromal cell-conditioned medium; format: functional, cell-based
CCRF-CEM [34] = test: Potentiation of tretinoin-induced antileukemic activity against human CCRF-CEM cells at 4.3 uM in presence of bone-marrow derived stromal cell-conditioned medium; format: functional, cell-based
U-937 [35] = test: Potentiation of trametinib-induced antileukemic activity against human U-937 cells at 4.3 uM in presence of bone-marrow derived stromal cell-conditioned medium; format: functional, cell-based
CCRF-CEM [36] = test: Potentiation of -nutlin 3-induced antileukemic activity against human CCRF-CEM cells at 4.3 uM in presence of bone-marrow derived stromal cell-conditioned medium; format: functional, cell-based
CCRF-CEM [37] = test: Potentiation of idasanutlin-induced antileukemic activity against human CCRF-CEM cells at 4.3 uM in presence of bone-marrow derived stromal cell-conditioned medium; format: functional, cell-based
MOLM-14 [38] = test: Potentiation of gefitinib-induced antileukemic activity against human MOLM-14 cells at 4.3 uM in presence of bone-marrow derived stromal cell-conditioned medium; format: functional, cell-based
CCRF-CEM [39] = test: Potentiation of hydroxychloroquine-induced antileukemic activity against human CCRF-CEM cells at 4.3 uM in presence of bone-marrow derived stromal cell-conditioned medium; format: functional, cell-based
U-937 [40] = test: Potentiation of panobinostat-induced antileukemic activity against human U-937 cells at 4.3 uM in presence of bone-marrow derived stromal cell-conditioned medium; format: functional, cell-based
MOLM-14 [41] = test: Potentiation of panobinostat-induced antileukemic activity against human MOLM-14 cells at 4.3 uM in presence of bone-marrow derived stromal cell-conditioned medium; format: functional, cell-based

CC(=O)N1CCc2c(sc3nc(SCC(=O)Nc4cccnc4C)n(Cc4ccco4)c(=O)c23)C1
5.07: pEC50 (MOLM-14 [24])
inactive: Activity (CCRF-CEM [1]) | Activity (MOLM-14 [2]) | Activity (CCRF-CEM [3]) | Activity (MOLM-14 [4]) | Activity (CCRF-CEM [5]) | Activity (MOLM-14 [6]) | Activity (MOLM-14 [7]) | Activity (U-937 [8]) | Activity (MOLM-14 [9]) | Activity (MOLM-14 [10]) | Activity (U-937 [11]) | Activity (U-937 [12]) | Activity (U-937 [13]) | Activity (MOLM-14 [14]) | Activity (CCRF-CEM [15]) | Activity (MOLM-14 [16]) | Activity (U-937 [18]) | Activity (CCRF-CEM [19]) | Activity (CCRF-CEM [20]) | Activity (MOLM-14 [21]) | Activity (CCRF-CEM [22]) | Activity (MOLM-14 [23]) | Activity (CCRF-CEM [25]) | Activity (CCRF-CEM [26]) | Activity (CCRF-CEM [27]) | Activity (CCRF-CEM [28]) | Activity (MOLM-14 [29]) | Activity (U-937 [30]) | Activity (CCRF-CEM [31]) | Activity (CCRF-CEM [32]) | Activity (CCRF-CEM [33]) | Activity (CCRF-CEM [34]) | Activity (U-937 [35]) | Activity (CCRF-CEM [36]) | Activity (CCRF-CEM [37]) | Activity (MOLM-14 [38]) | Activity (CCRF-CEM [39]) | Activity (U-937 [40]) | Activity (MOLM-14 [41])
active: Activity [17]
